Assay results as given in US12448388B2, “PRMT5 inhibitors and uses thereof” (Gilead Sciences, Inc., priority 2023, dated 2025).

How the values were obtained:
[1] = tested on: HCT116 MTAP-deleted cell lines; experiment: Cell viability assay (CellTiter-Glo, 7 days), HCT116 MTAP-deleted; format: cell-based; conditions: Homo sapiens, HCT-116; cell viability assay, HCT116 MTAP-deleted; class symbols; read-out: CC50
Procedure, shortened: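 First, compounds are serially diluted in DMSO and dispensed into plates, which are frozen until seeding. Next, cells are added and incubated 7 days at 37 °C, 5% CO2, 90% humidity. Finally, CellTiter-Glo reagent is added and luminescence is measured to derive CC50.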

[2] = tested on: Symmetric Di-methyl Arginine (SDMA) signal (PRMT5 inhibition) in HCT116 MTAP-deleted cells; experiment: Symmetric di-methyl arginine image-based high content screen assay (SDMA assay), HCT116 MTAP-deleted; format: cell-based; conditions: for EC50 selectivity: HCT116 WT vs HCT116 MTAP-deleted; for EC50: Homo sapiens, HCT-116, HCT116 MTAP-deleted, class symbols
Procedure, shortened: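 Read-out is imaging of per-cell mean SDMA immunofluorescence (Alexa 488), with cells segmented by DAPI. Cells, MTAP-deleted or wild-type HCT116, were exposed to compound for 3 days at 37 °C before fixation. EC50 derived by 4-parameter non-linear logistic regression.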

Structure (SMILES) | EC50 selectivity [2] | EC50 [2] | CC50 [1]
Cc1ncn2c1c(N)nc1cnc(C(=O)N3C[C@@H](F)C[C@@H]4Oc5cc(C(F)(F)F)ccc5[C@@H]43)cc12 [Ff-658, (4-amino-3-methylimidazo[1,5-a]pyrido[3,4-e]pyrazin-8-yl)((3S,4aS,9bS)-3-fluoro-7-(trifluoromethyl)-3,4,4a,9b-tetrahydrobenzofuro[3,2-b]pyridin-1(2H)-yl)methanone] | 124 | 1 to 5 nM | < 100 nM
[2H]C([2H])([2H])c1ncn2c1c(N)nc1cnc(C(=O)N3CCC[C@@H]4Oc5cc(C(F)(F)F)ccc5[C@@H]43)cc12 [Ff-662, (4-amino-3-(methyl-d3)imidazo[1,5-a]pyrido[3,4-e]pyrazin-8-yl)((4aS,9bS)-7-(trifluoromethyl)-3,4,4a,9b-tetrahydrobenzofuro[3,2-b]pyridin-1(2H)-yl)methanone] | 70 | 1 to 5 nM | < 100 nM
Cc1ncn2c1c(N)nc1cnc(C(=O)N3CCC[C@@H]4Oc5cc(S(F)(F)(F)(F)F)ccc5[C@@H]43)cc12 [Ff-665, (4-amino-3-methylimidazo[1,5-a]pyrido[3,4-e]pyrazin-8-yl)((4aS,9bS)-7-(pentafluoro-16-sulfaneyl)-3,4,4a,9b-tetrahydrobenzofuro[3,2-b]pyridin-1(2H)-yl)methanone] | 39 | ≤ 1 nM | < 100 nM
Nc1nc2ccc(C(=O)N3C[C@@H](F)C[C@@H]4Oc5cc(OC(F)(F)F)ccc5[C@@H]43)cc2n2cncc12 [Ff-667, (4-aminoimidazo[1,5-a]quinoxalin-8-yl)((3S,4aS,9bS)-3-fluoro-7-(trifluoromethoxy)-3,4,4a,9b-tetrahydrobenzofuro[3,2-b]pyridin-1(2H)-yl)methanone] | 115 | ≤ 1 nM | < 100 nM
Nc1nc2cc(F)c(C(=O)N3CCC4(CCCc5ccccc54)C3)cc2n2cncc12 (stereo not drawn) [Ff-669, (4-amino-7-fluoroimidazo[1,5-a]quinoxalin-8-yl)(3,4-dihydro-2H-spiro[naphthalene-1,3′-pyrrolidin]-1′-yl)methanone] | 485 | 1 to 5 nM | 100 to 1000 nM
CN(C(=O)c1cc2c(cc1F)nc(N)c1cncn12)[C@@H]1COc2cc(C(F)(F)F)ncc21 [Ff-673, (S)-4-amino-7-fluoro-N-methyl-N-(6-(trifluoromethyl)-2,3-dihydrofuro[3,2-c]pyridin-3-yl)imidazo[1,5-a]quinoxaline-8-carboxamide] | 197 | 1 to 5 nM | < 100 nM
Cc1cc2nc(N)c3cncn3c2cc1C(=O)N(C)[C@@H]1COc2cc(C(F)(F)F)ccc21 [Ff-674, (S)-4-amino-N,7-dimethyl-N-(6-(trifluoromethyl)-2,3-dihydrobenzofuran-3-yl)imidazo[1,5-a]quinoxaline-8-carboxamide] | 85 | ≤ 1 nM | < 100 nM
Nc1nc2ccc(C(=O)N3CCC4(CC4)[C@@H]4Oc5cc(C(F)(F)F)ccc5[C@@H]43)cc2n2cncc12 [Ff-675, (4-aminoimidazo[1,5-a]quinoxalin-8-yl)((4aS,9bS)-7-(trifluoromethyl)-2,3,4a,9b-tetrahydro-1H-spiro[benzofuro[3,2-b]pyridine-4,1′-cyclopropan]-1-yl)methanone] | 107 | ≤ 1 nM | < 100 nM
Cc1ncn2c1c(N)nc1cnc(C(=O)N3CCC4(CC4)[C@@H]4Oc5cc(C(F)(F)F)ccc5[C@@H]43)cc12 [Ff-678, (4-amino-3-methylimidazo[1,5-a]pyrido[3,4-e]pyrazin-8-yl)((4aS,9bS)-7-(trifluoromethyl)-2,3,4a,9b-tetrahydro-1H-spiro[benzofuro[3,2-b]pyridine-4,1′-cyclopropan]-1-yl)methanone] | 263 | 1 to 5 nM | < 100 nM
C[C@H](c1ncccn1)N(Cc1ccc(C(F)(F)F)cn1)C(=O)c1ccc2nc(N)n3cncc3c2c1 [Fg-1, (R)-5-amino-N-(1-(pyrimidin-2-yl)ethyl)-N-((5-(trifluoromethyl)pyridin-2-yl)methyl)imidazo[1,5-c]quinazoline-9-carboxamide] | 50 | 1 to 5 nM | 100 to 1000 nM
Cc1ncn2c(N)nc3ccc(C(=O)N(Cc4ccc(C(F)(F)F)cn4)[C@H](C)c4ncccn4)cc3c12 [Fg-2, (R)-5-amino-1-methyl-N-(1-(pyrimidin-2-yl)ethyl)-N-((5-(trifluoromethyl)pyridin-2-yl)methyl)imidazo[1,5-c]quinazoline-9-carboxamide] | 39 | 1 to 5 nM | < 100 nM
C[C@H](c1ncccn1)N(Cc1ccc(C(F)(F)F)cn1)C(=O)c1cc2c(cc1Cl)nc(N)n1cncc21 [Fg-3, (R)-5-amino-8-chloro-N-(1-(pyrimidin-2-yl)ethyl)-N-((5-(trifluoromethyl)pyridin-2-yl)methyl)imidazo[1,5-c]quinazoline-9-carboxamide] | 16 | > 5 nM | 100 to 1000 nM
C[C@H](c1ncccn1)N(Cc1ccc(C(F)(F)F)cn1)C(=O)c1cc2c(cc1F)nc(N)n1cncc21 [Fg-4, (R)-5-amino-8-fluoro-N-(1-(pyrimidin-2-yl)ethyl)-N-((5-(trifluoromethyl)pyridin-2-yl)methyl)imidazo[1,5-c]quinazoline-9-carboxamide] | 23 | 1 to 5 nM | 100 to 1000 nM
Cc1ncc2c3cc(C(=O)N(Cc4ccc(C(F)(F)F)cn4)[C@H](C)c4ncccn4)ccc3nc(N)n12 [Fg-5, (R)-5-amino-3-methyl-N-(1-(pyrimidin-2-yl)ethyl)-N-((5-(trifluoromethyl)pyridin-2-yl)methyl)imidazo[1,5-c]quinazoline-9-carboxamide] | 19 | 1 to 5 nM | < 100 nM
CCN(C(=O)c1ccc2nc(N)c3c(C)ncn3c2c1)[C@@H]1COc2cc(C(F)(F)F)ccc21 [Fg-6, (S)-4-amino-N-ethyl-3-methyl-N-(6-(trifluoromethyl)-2,3-dihydrobenzofuran-3-yl)imidazo[1,5-a]quinoxaline-8-carboxamide] | 88 | 1 to 5 nM | < 100 nM

Now from value to compound, other results behind:

EC50 selectivity [2] | EC50 [2] | Structure (SMILES) | CC50 [1]
389 | ≤ 1 nM | CN(C(=O)c1ccc2nc(N)c3cncn3c2c1)[C@@H]1COc2cc(C34CC(C(F)F)(C3)C4)ccc21 [Ff-641, (S)-4-amino-N-(6-(3-(difluoromethyl)bicyclo[1.1.1]pentan-1-yl)-2,3-dihydrobenzofuran-3-yl)-N-methylimidazo[1,5-a]quinoxaline-8-carboxamide] | < 100 nM
155 | ≤ 1 nM | [2H]C1([2H])CC[C@@H]2Oc3cc(C(F)(F)F)ccc3[C@@H]2N1C(=O)c1ccc2nc(N)c3cncn3c2c1 [Ff-643, (4-aminoimidazo[1,5-a]quinoxalin-8-yl)((4aS,9bS)-7-(trifluoromethyl)-3,4,4a,9b-tetrahydrobenzofuro[3,2-b]pyridin-1(2H)-yl-2,2-d2)methanone] | < 100 nM
92 | ≤ 1 nM | [2H]C1([2H])CC[C@@H]2Oc3cc(C(F)(F)F)ccc3[C@@H]2N1C(=O)c1cc2c(cn1)nc(N)c1c(C)ncn12 [Ff-644, (4-amino-3-methylimidazo[1,5-a]pyrido[3,4-e]pyrazin-8-yl)((4aS,9bS)-7-(trifluoromethyl)-3,4,4a,9b-tetrahydrobenzofuro[3,2-b]pyridin-1(2H)-yl-2,2-d2)methanone] | < 100 nM
122 | ≤ 1 nM | Cc1ncc2c(N)nc3ccc(C(=O)N4C[C@@H](F)C[C@@H]5Oc6cc(C(F)(F)F)ccc6[C@@H]54)cc3n12 [Ff-660, (4-amino-1-methylimidazo[1,5-a]quinoxalin-8-yl)((3S,4aS,9bS)-3-fluoro-7-(trifluoromethyl)-3,4,4a,9b-tetrahydrobenzofuro[3,2-b]pyridin-1(2H)-yl)methanone] | < 100 nM
147 | ≤ 1 nM | Nc1nc2cc(F)c(C(=O)N3CCC[C@@H]4Oc5cc(-c6cnn(C(F)F)c6)ccc5[C@@H]43)cc2n2cncc12 [Ff-661, (4-amino-7-fluoroimidazo[1,5-a]quinoxalin-8-yl)((4aS,9bS)-7-(1-(difluoromethyl)-1H-pyrazol-4-yl)-3,4,4a,9b-tetrahydrobenzofuro[3,2-b]pyridin-1(2H)-yl)methanone] | < 100 nM
23 | ≤ 1 nM | Nc1nc2cc(F)c(C(=O)N3CCC[C@@H]4Oc5cc(S(F)(F)(F)(F)F)ccc5[C@@H]43)cc2n2cncc12 [Ff-663, (4-amino-7-fluoroimidazo[1,5-a]quinoxalin-8-yl)((4aS,9bS)-7-(pentafluoro-16-sulfaneyl)-3,4,4a,9b-tetrahydrobenzofuro[3,2-b]pyridin-1(2H)-yl)methanone] | < 100 nM
79 | ≤ 1 nM | Nc1nc2ccc(C(=O)N3CCC[C@@H]4Oc5cc(S(F)(F)(F)(F)F)ccc5[C@@H]43)cc2n2cncc12 [Ff-664, (4-aminoimidazo[1,5-a]quinoxalin-8-yl)((4aS,9bS)-7-(pentafluoro-16-sulfaneyl)-3,4,4a,9b-tetrahydrobenzofuro[3,2-b]pyridin-1(2H)-yl)methanone] | < 100 nM
